From ChEMBL document CHEMBL3885861, “Open TG-GATES”

Organism: Rattus norvegicus
Assay: Open TG-GATES - Regimen: Daily Repeat
Assay type: toxicity, organism-based, Sprague-Dawley
Set-up: regimen Daily Repeat, gender Male, age 6 weeks
Conditions: in vivo, po, 100 mg/kg, route gavage, dose level Low; for APTT / Bas / Eos / Fbg / Hb / Ht / Lym / MCH / MCHC / MCV / Mono / Neu / PT / Plat / RBC / Ret / WBC: tissue Blood; for KIDNEY_L / KIDNEY_R / KIDNEY_TOTAL: tissue Kidney; for LIVER: tissue Liver; for A/G / ALP / ALT / AST / BUN / CRE / Ca / Cl / DBIL / GLC / IP / K / LDH / Na / PL / RALB / TBIL / TC / TG / TP / gamma-GTP: tissue Plasma

Work on CCN1CCCC1CNC(=O)c1cc(S(N)(=O)=O)ccc1OC (configuration not stated) [SULPIRIDE] yielded a TERMINAL_BW (72 h, time 3 day) of 231.2 g, an APTT (72 h, time 3 day) of 17.2 s and a Bas (72 h, time 3 day) of 0%. For the same compound, the Eos (72 h, time 3 day) was 1%, the Fbg (72 h, time 3 day) was 274.6 mg/dL and the Hb (72 h, time 3 day) was 13.6 g/dL. For the same compound, the Ht (72 h, time 3 day) was 41.3%, the Lym (72 h, time 3 day) was 74.8% and the MCH (72 h, time 3 day) was 20.9 pg. It also gave an MCHC (72 h, time 3 day) of 32.8%, an MCV (72 h, time 3 day) of 63.7 fL and a Mono (72 h, time 3 day) of 3%. It also gave a Neu (72 h, time 3 day) of 20.8%, a PT (72 h, time 3 day) of 13.2 s and a Plat (72 h, time 3 day) of 122 x10_4/uL. The RBC (72 h, time 3 day) was 649.2 x10_4/ul, the Ret (72 h, time 3 day) was 6.5% and the WBC (72 h, time 3 day) was 95.3 x10_2/uL. For the same compound, the KIDNEY_L (72 h, time 3 day) was 1 g, the KIDNEY_R (72 h, time 3 day) was 1 g and the KIDNEY_TOTAL (72 h, time 3 day) was 2 g. The LIVER (72 h, time 3 day) was 10.7 g, the A/G (72 h, time 3 day) was 0.9 and the ALP (72 h, time 3 day) was 1543 IU/L. For the same compound, the ALT (72 h, time 3 day) was 42.4 IU/L, the AST (72 h, time 3 day) was 66.4 IU/L and the BUN (72 h, time 3 day) was 13.6 mg/dL. For the same compound, the CRE (72 h, time 3 day) was 0.2 mg/dL, the Ca (72 h, time 3 day) was 11 mg/dL and the Cl (72 h, time 3 day) was 105.2 meq/L. For the same compound, the DBIL (72 h, time 3 day) was 0.01 mg/dL, the GLC (72 h, time 3 day) was 186.8 mg/dL and the IP (72 h, time 3 day) was 7.4 mg/dL. The K (72 h, time 3 day) was 4.2 meq/L, the LDH (72 h, time 3 day) was 70.4 IU/L and the Na (72 h, time 3 day) was 141 meq/L. The PL (72 h, time 3 day) was 142.2 mg/dL, the RALB (72 h, time 3 day) was 2.6 g/dL and the TBIL (72 h, time 3 day) was 0.058 mg/dL. The TC (72 h, time 3 day) was 72 mg/dL, the TG (72 h, time 3 day) was 106.6 mg/dL and the TP (72 h, time 3 day) was 5.6 g/dL. For the same compound, the gamma-GTP (72 h, time 3 day) was 1 IU/L, the TERMINAL_BW ([…], time 7 day) was 265 g and the TERMINAL_BW ([…], time 14 day) was 328.7 g. The TERMINAL_BW ([…], time 28 day) was 377.8 g, the APTT ([…], time 7 day) was 19.5 s and the Bas ([…], time 7 day) was 0.6%. It also gave an Eos ([…], time 7 day) of 1.2%, a Fbg ([…], time 7 day) of 289.6 mg/dL and a Hb ([…], time 7 day) of 14 g/dL. For the same compound, the Ht ([…], time 7 day) was 42.1%, the Lym ([…], time 7 day) was 80% and the MCH ([…], time 7 day) was 20.5 pg. The MCHC ([…], time 7 day) was 33.2%, the MCV ([…], time 7 day) was 61.9 fL and the Mono ([…], time 7 day) was 2.8%. The Neu ([…], time 7 day) was 14.6%, the PT ([…], time 7 day) was 13.1 s and the Plat ([…], time 7 day) was 123.5 x10_4/uL. The RBC ([…], time 7 day) was 681.6 x10_4/ul, the Ret ([…], time 7 day) was 5.3% and the WBC ([…], time 7 day) was 106.6 x10_2/uL. It also gave an APTT ([…], time 14 day) of 20.6 s, a Bas ([…], time 14 day) of 0% and an Eos ([…], time 14 day) of 1%. For the same compound, the Fbg ([…], time 14 day) was 286 mg/dL, the Hb ([…], time 14 day) was 14.6 g/dL and the Ht ([…], time 14 day) was 44%. For the same compound, the Lym ([…], time 14 day) was 75.2%, the MCH ([…], time 14 day) was 20.6 pg and the MCHC ([…], time 14 day) was 33.2%. The MCV ([…], time 14 day) was 62.1 fL, the Mono ([…], time 14 day) was 3% and the Neu ([…], time 14 day) was 20%. It also gave a PT ([…], time 14 day) of 13.1 s, a Plat ([…], time 14 day) of 121.3 x10_4/uL and an RBC ([…], time 14 day) of 708 x10_4/ul. For the same compound, the Ret ([…], time 14 day) was 4.5%, the WBC ([…], time 14 day) was 97.2 x10_2/uL and the APTT ([…], time 28 day) was 19.8 s. The Bas ([…], time 28 day) was 0%, the Eos ([…], time 28 day) was 1.2% and the Fbg ([…], time 28 day) was 274.2 mg/dL. For the same compound, the Hb ([…], time 28 day) was 16 g/dL, the Ht ([…], time 28 day) was 46.9% and the Lym ([…], time 28 day) was 76.2%. The MCH ([…], time 28 day) was 19.8 pg, the MCHC ([…], time 28 day) was 34.2% and the MCV ([…], time 28 day) was 57.7 fL. It also gave a Mono ([…], time 28 day) of 1.8%, a Neu ([…], time 28 day) of 19.8% and a PT ([…], time 28 day) of 13 s. For the same compound, the Plat ([…], time 28 day) was 110.8 x10_4/uL, the RBC ([…], time 28 day) was 812.6 x10_4/ul and the Ret ([…], time 28 day) was 2.2%. The WBC ([…], time 28 day) was 95.5 x10_2/uL, the KIDNEY_L ([…], time 7 day) was 1.1 g and the KIDNEY_R ([…], time 7 day) was 1.1 g. For the same compound, the KIDNEY_TOTAL ([…], time 7 day) was 2.2 g, the KIDNEY_L ([…], time 14 day) was 1.2 g and the KIDNEY_R ([…], time 14 day) was 1.2 g. It also gave a KIDNEY_TOTAL ([…], time 14 day) of 2.4 g, a KIDNEY_L ([…], time 28 day) of 1.2 g and a KIDNEY_R ([…], time 28 day) of 1.2 g. It also gave a KIDNEY_TOTAL ([…], time 28 day) of 2.5 g, an LIVER ([…], time 7 day) of 12.9 g and an LIVER ([…], time 14 day) of 14.2 g. The LIVER ([…], time 28 day) was 14.4 g, the A/G ([…], time 7 day) was 0.9 and the ALP ([…], time 7 day) was 1433 IU/L. It also gave an ALT ([…], time 7 day) of 45.4 IU/L, an AST ([…], time 7 day) of 66.6 IU/L and a BUN ([…], time 7 day) of 14.8 mg/dL. For the same compound, the CRE ([…], time 7 day) was 0.2 mg/dL, the Ca ([…], time 7 day) was 10.7 mg/dL and the Cl ([…], time 7 day) was 105.6 meq/L. The DBIL ([…], time 7 day) was 0.008 mg/dL, the GLC ([…], time 7 day) was 175.2 mg/dL and the IP ([…], time 7 day) was 7.5 mg/dL. It also gave a K ([…], time 7 day) of 4.4 meq/L, an LDH ([…], time 7 day) of 64.2 IU/L and a Na ([…], time 7 day) of 141.8 meq/L. It also gave a PL ([…], time 7 day) of 145.2 mg/dL, an RALB ([…], time 7 day) of 2.6 g/dL and a TBIL ([…], time 7 day) of 0.056 mg/dL. It also gave a TC ([…], time 7 day) of 70.4 mg/dL, a TG ([…], time 7 day) of 116.4 mg/dL and a TP ([…], time 7 day) of 5.6 g/dL. It also gave a gamma-GTP ([…], time 7 day) of 1 IU/L, an A/G ([…], time 14 day) of 0.9 and an ALP ([…], time 14 day) of 1376.8 IU/L. It also gave an ALT ([…], time 14 day) of 38.8 IU/L, an AST ([…], time 14 day) of 68.5 IU/L and a BUN ([…], time 14 day) of 15.8 mg/dL. The CRE ([…], time 14 day) was 0.2 mg/dL, the Ca ([…], time 14 day) was 11 mg/dL and the Cl ([…], time 14 day) was 104.5 meq/L. It also gave a DBIL ([…], time 14 day) of 0.015 mg/dL, a GLC ([…], time 14 day) of 197 mg/dL and an IP ([…], time 14 day) of 7.6 mg/dL. For the same compound, the K ([…], time 14 day) was 3.9 meq/L, the LDH ([…], time 14 day) was 73.5 IU/L and the Na ([…], time 14 day) was 141.2 meq/L. The PL ([…], time 14 day) was 145.5 mg/dL, the RALB ([…], time 14 day) was 2.7 g/dL and the TBIL ([…], time 14 day) was 0.06 mg/dL. It also gave a TC ([…], time 14 day) of 67.5 mg/dL, a TG ([…], time 14 day) of 149 mg/dL and a TP ([…], time 14 day) of 5.8 g/dL. For the same compound, the gamma-GTP ([…], time 14 day) was 1 IU/L, the A/G ([…], time 28 day) was 0.8 and the ALP ([…], time 28 day) was 981.6 IU/L. The ALT ([…], time 28 day) was 36 IU/L, the AST ([…], time 28 day) was 65.6 IU/L and the BUN ([…], time 28 day) was 17.2 mg/dL. For the same compound, the CRE ([…], time 28 day) was 0.3 mg/dL, the Ca ([…], time 28 day) was 10.5 mg/dL and the Cl ([…], time 28 day) was 105.2 meq/L. For the same compound, the DBIL ([…], time 28 day) was 0.008 mg/dL, the GLC ([…], time 28 day) was 178 mg/dL and the IP ([…], time 28 day) was 6.4 mg/dL. It also gave a K ([…], time 28 day) of 3.8 meq/L, an LDH ([…], time 28 day) of 173.6 IU/L and a Na ([…], time 28 day) of 142.6 meq/L. For the same compound, the PL ([…], time 28 day) was 136 mg/dL, the RALB ([…], time 28 day) was 2.8 g/dL and the TBIL ([…], time 28 day) was 0.068 mg/dL. For the same compound, the TC ([…], time 28 day) was 63 mg/dL, the TG ([…], time 28 day) was 112 mg/dL and the TP ([…], time 28 day) was 6.2 g/dL. It also gave a gamma-GTP ([…], time 28 day) of 1 IU/L.
